Experimental data reported in patent US20230270723A1, “GLUCOKINASE ACTIVATOR FOR TREATING DIABETES WITH HEPATIC IMPAIRMENT” (HUA Medicine (Shanghai) Ltd., priority 2020, published 2023).
Read-outs that look alike come from different tables or passages of the source.

How the values were obtained:
[1] = Phase I single oral dose pharmacokinetic study of dorzagliatin in subjects with mild or moderate hepatic impairment and healthy subjects (plasma, LC-MS/MS, non-compartmental); assay type: in vivo, human; settings: for AUC(0-inf) / AUC(0-t) / Cmax / half-life / Vd/F / Tmax: both sexes, human, plasma, po, 25 mg; for Vd/F: read-out: Vz/F; for Tmax: median
Experimental: This phase I study is to access the pharmacokinetics and safety of a single dose of dorzagliatin in subjects with mild or moderate hepatic impairment, and heathy subjects. […] The eligible subjects of Groups A and B are matched closely with the healthy subjects of Group C as to their sexes, ages (±5 yrs), and BMIs (±15%).
on Day −2 or −1, eligible subjects are admitted to a clinical research center (CRC). […], the subjects have no additional food after a standard dinner for at least 10 h. In the morning of Day 1, the subjects each receive dorzagliatin (25 mg) orally with empty stomach. One hour later, the subjects have a standardized breakfast. Blood samples are collected at the following time points: within 60 min pre-dose; and at 0.25, 0.5, 1, 1.5, 2, 2.5, 3, 4, 6, 8, 12, 24, 36, 48, and 72 h post-dose. The samples are analyzed using LC-MS/MS. The plasma concentration-time data for dorzagliatin are analyzed using a non-compartmental model to obtain PK parameters, including Cmax, AUClast, and AUCinf. An ANOVA analysis is performed on the data between Group C and Groups A and B.
Study design: This study was designed to evaluate the PK and safety of a single oral dose of dorzagliatin 25 mg in subjects with hepatic impairment compared with matched healthy subjects using an open label, single-center, parallel study design. The study population (as shown in Table 1) consisted of subjects with mild (group A) and moderate (group B) hepatic impairment and healthy subjects (group C) matched for sex, mean age, and mean BMI. The number of subjects who completed the study in each group was not less than 8, both male and female, and no less than 3 subjects of a single sex in each group.
(§1) Eligible subjects were admitted to the Phase 1 study ward on either Day −2 or Day −1 to complete the baseline examination, and re-confirmed the inclusion/exclusion criteria by the investigator and fed a standardized meal after admission. Subjects were fasted at least 10 hours overnight while water was not deprived after the standardized dinner on Day −1, and received a single dose of dorzagliatin 25 mg (25 mg/tablet, 1 tablet) with 240 mL of warm water on the morning of Day 1. Subjects should start the standardized breakfast about 1 hour after administration and complete the meal within 30 minutes. Blood samples for PK and plasma protein binding (PPB) analyses were collected at specified time points within 1 hour pre-dose through 72 hours post-dose. The corresponding safety indicators at preset time points were detected for safety assessment.
(§2) Pharmacokinetic Evaluation • PK blood sampling time: Within 1 hour pre-dose and 0.25, 0.5, 1, 1.5, 2, 2.5, 3, 4, 6, 8, 12, 24, 36, 48 and 72 hours post-dose of dorzagliatin on Day 1. • PPB blood sampling time: Within 1 hour pre-dose and 1 hour post-dose of dorzagliatin. • Bioanalytical method: dorzagliatin in plasma was analyzed using a validated method of liquid chromatography-tandem mass spectrometry (LC-MS/MS). • PK parameters. Primary PK endpoint: Cmax, AUClast, AUCinf; Secondary PK endpoint (if applicable): Cmax,u, AUClast,u, AUCinf,u, Tmax, T1/2, CL/F, Vz/F, fu.

[2] = Plasma protein binding (PPB) analysis, free drug percentage (fu); assay type: in vitro ADME; settings: human, oral, 25 mg
Experimental: as §1, §2

[3] = Safety evaluation (adverse events) after single oral dose of dorzagliatin 25 mg; assay type: in vivo, human
Experimental: Safety Evaluation • Physical examination: Evaluated at screening, baseline, Day 2, Day 3, discharge examination on Day 4. • Vital signs: Evaluated at screening, baseline, 24 and 48 hours post-dose, discharge examination on Day 4. • 12-lead ECG: Evaluated at screening, baseline, 24 hours and 48 hours post-dose, discharge examination on Day 4. Test once at each time point. • Hematology, blood biochemistry and urinalysis: Evaluated at screening, baseline, 24 hours, 48 hours and 72 hours post-dose. • Adverse events (AEs): All the subjects are observed for any AEs occurring from the signing of the ICF to the end of study. The clinical manifestations, severity, occurrence time, end time (if applicable), treatment measure, outcome and other information of each AE are recorded, and the correlation between an AE and the study drugs is judged.

[4] = single oral dose 25 mg, healthy group, arithmetic mean
[5] = single oral dose 25 mg, mild hepatic impairment group, arithmetic mean
[6] = single oral dose 25 mg, moderate hepatic impairment group, arithmetic mean
[7] = moderate hepatic impairment group

CC(C)C[C@@H](C(=O)Nc1ccn(C[C@@H](O)CO)n1)N1CC(Oc2ccccc2Cl)=CC1=O [dorzagliatin, (S)-2-(4-(2-chlorophenoxy)-2-oxo-2,5-dihydro-1H-pyrrol-1-yl)-N-(1-((R)-2,3-dihydroxypropyl)-1H-pyrazol-3-yl)-4-methylpentanamide]
AUC(0-inf) ([1]; free drug, single oral dose 25 mg, healthy group, arithmetic mean, read-out: AUCinf,u): 123 ng·h/mL
AUC(0-t) ([1]; free drug, single oral dose 25 mg, healthy group, arithmetic mean, read-out: AUClast,u): 122 ng·h/mL
AUC(0-inf) ([1]; free drug, single oral dose 25 mg, healthy group, read-out: AUCinf,u, geometric least squares mean): 119 ng·h/mL
AUC(0-t) ([1]; free drug, single oral dose 25 mg, healthy group, read-out: AUClast,u, geometric least squares mean): 118 ng·h/mL
AUC(0-inf) ([1]; free drug, single oral dose 25 mg, mild hepatic impairment group (N=7), arithmetic mean, read-out: AUCinf,u): 170 ng·h/mL
AUC(0-t) ([1]; free drug, single oral dose 25 mg, mild hepatic impairment group (N=7), arithmetic mean, read-out: AUClast,u): 169 ng·h/mL
AUC(0-inf) ([1]; free drug, single oral dose 25 mg, moderate hepatic impairment group, arithmetic mean, read-out: AUCinf,u): 287 ng·h/mL
AUC(0-t) ([1]; free drug, single oral dose 25 mg, moderate hepatic impairment group, arithmetic mean, read-out: AUClast,u): 284 ng·h/mL
AUC(0-inf) ([1]; free drug, single oral dose 25 mg, moderate hepatic impairment group, read-out: AUCinf,u, geometric least squares mean): 282 ng·h/mL
AUC(0-t) ([1]; free drug, single oral dose 25 mg, moderate hepatic impairment group, read-out: AUClast,u, geometric least squares mean): 280 ng·h/mL
Cmax ([1]; single oral dose 25 mg, fasted, healthy group, arithmetic mean, read-out: Cmax): 325 ng/mL
Cmax ([1]; single oral dose 25 mg, fasted, mild hepatic impairment group (Child-Pugh 5-6), arithmetic mean, read-out: Cmax): 382 ng/mL
Cmax ([1]; single oral dose 25 mg, fasted, moderate hepatic impairment group (Child-Pugh 7-9), arithmetic mean, read-out: Cmax): 370 ng/mL
half-life [1, 4]: 6.22 h
AUC(0-inf) ([1]; single oral dose 25 mg, healthy group, arithmetic mean, read-out: AUCinf): 1910 ng·h/mL
AUC(0-t) ([1]; single oral dose 25 mg, healthy group, arithmetic mean, read-out: AUClast): 1890 ng·h/mL
Vd/F [1, 4]: 122 L
Tmax ([1]; single oral dose 25 mg, healthy group): 1.75 h
AUC(0-inf) ([1]; single oral dose 25 mg, healthy group, read-out: AUCinf, geometric least squares mean): 1870 ng·h/mL
AUC(0-t) ([1]; single oral dose 25 mg, healthy group, read-out: AUClast, geometric least squares mean): 1840 ng·h/mL
Cmax ([1]; single oral dose 25 mg, healthy group, read-out: Cmax, geometric least squares mean): 307 ng/mL
half-life [1, 5]: 6.25 h
AUC(0-inf) ([1]; single oral dose 25 mg, mild hepatic impairment group, arithmetic mean, read-out: AUCinf): 2260 ng·h/mL
AUC(0-t) ([1]; single oral dose 25 mg, mild hepatic impairment group, arithmetic mean, read-out: AUClast): 2240 ng·h/mL
Vd/F [1, 5]: 106 L
Tmax ([1]; single oral dose 25 mg, mild hepatic impairment group): 1.5 h
AUC(0-inf) ([1]; single oral dose 25 mg, mild hepatic impairment group, read-out: AUCinf, geometric least squares mean): 2190 ng·h/mL
AUC(0-t) ([1]; single oral dose 25 mg, mild hepatic impairment group, read-out: AUClast, geometric least squares mean): 2170 ng·h/mL
Cmax ([1]; single oral dose 25 mg, mild hepatic impairment group, read-out: Cmax, geometric least squares mean): 370 ng/mL
half-life [1, 6]: 8.04 h
AUC(0-inf) ([1]; single oral dose 25 mg, moderate hepatic impairment group, arithmetic mean, read-out: AUCinf): 3450 ng·h/mL
AUC(0-t) ([1]; single oral dose 25 mg, moderate hepatic impairment group, arithmetic mean, read-out: AUClast): 3410 ng·h/mL
Vd/F [1, 6]: 85.2 L
AUC(0-t) ([1]; single oral dose 25 mg, moderate hepatic impairment group, mean, read-out: AUClast): 3410 ng·h/mL
Tmax ([1]; single oral dose 25 mg, moderate hepatic impairment group): 1.5 h
AUC(0-inf) ([1]; single oral dose 25 mg, moderate hepatic impairment group, read-out: AUCinf, geometric least squares mean): 3410 ng·h/mL
AUC(0-t) ([1]; single oral dose 25 mg, moderate hepatic impairment group, read-out: AUClast, geometric least squares mean): 3370 ng·h/mL
Cmax ([1]; single oral dose 25 mg, moderate hepatic impairment group, read-out: Cmax, geometric least squares mean): 362 ng/mL
Cmax,u, geometric least squares mean ([1]; free drug, single oral dose 25 mg, healthy group): 19.7 ng/mL
Cmax,u ([1]; free drug, single oral dose 25 mg, healthy group, arithmetic mean): 21.0 ng/mL
Cmax,u ([1]; free drug, single oral dose 25 mg, mild hepatic impairment group (N=7), arithmetic mean): 28.8 ng/mL
Cmax,u, geometric least squares mean ([1]; free drug, single oral dose 25 mg, moderate hepatic impairment group): 30.0 ng/mL
Cmax,u ([1]; free drug, single oral dose 25 mg, moderate hepatic impairment group, arithmetic mean): 30.7 ng/mL
increase of geometric mean of AUCinf compared with healthy subjects ([1]; mild hepatic impairment group): ~17%
increase of geometric mean of AUClast compared with healthy subjects ([1]; mild hepatic impairment group): approximately 18%
increase of geometric mean of Cmax compared with healthy subjects ([1]; mild hepatic impairment group): approximately 20%
effect of mild hepatic impairment on clearance and exposure level ([1]; mild hepatic impairment vs healthy subjects): no significant effect
increase of geometric mean of AUCinf compared with healthy subjects [1, 7]: ~83%
increase of geometric mean of AUClast compared with healthy subjects [1, 7]: ~83%
increase of geometric mean of Cmax compared with healthy subjects [1, 7]: approximately 18%
increase of geometric mean of free AUCinf compared with the healthy group [1, 7]: ~137%
increase of geometric mean of free AUClast compared with the healthy group [1, 7]: ~137%
clearance and exposure level in moderate hepatic impairment ([1]; moderate hepatic impairment vs healthy subjects): the drug clearance was decreased and the exposure level was increased
increase of AUC of free drug compared with healthy subjects ([1]; moderate hepatic impairment, conclusion, AUC not further specified): ~137%
absorption after oral administration ([1]; single oral dose 25 mg): rapidly absorbed
CL/F [1, 4]: 13.7 L/h
CL/F [1, 5]: 11.8 L/h
CL/F [1, 6]: 7.43 L/h
fraction unbound ([2]; free drug percentage in plasma, healthy group, arithmetic mean, read-out: fu): 0.0646
fraction unbound ([2]; free drug percentage in plasma, mild hepatic impairment group (N=7), arithmetic mean, read-out: fu): 0.0719
fraction unbound ([2]; free drug percentage in plasma, moderate hepatic impairment group, arithmetic mean, read-out: fu): 0.0832
fraction unbound ([2]; healthy group, read-out: free drug percentage (fu), geometric mean): 0.0639
fraction unbound ([2]; mild hepatic impairment group, read-out: free drug percentage (fu), geometric mean): 0.0712
fraction unbound ([2]; moderate hepatic impairment group, read-out: free drug percentage (fu), geometric mean): 0.0829
number of AEs ([3]; all subjects): 20
number of TEAEs ([3]; all subjects): 18
number of TEAEs considered possibly related to the study drug ([3]; all subjects): 10
subjects with TEAEs considered possibly related to the study drug ([3]; all subjects): 25.0%
SAEs, death, or significant TEAEs ([3]; all subjects, during the study): no SAEs, death, or significant TEAEs
subjects who experienced TEAEs ([3]; all subjects, mild in most cases): 33.3%
subjects who experienced AEs ([3]; all subjects, single oral dose 25 mg): 33.3%
subjects who experienced AEs ([3]; healthy group): No subjects
number of AEs ([3]; mild hepatic impairment group): 13
number of TEAEs considered possibly related to the study drug ([3]; mild hepatic impairment group): 8
subjects who experienced AEs ([3]; mild hepatic impairment group): 62.5%
subjects with TEAEs considered possibly related to the study drug ([3]; mild hepatic impairment group): 50.0%
number of AEs [3, 7]: 7
number of TEAEs considered possibly related to the study drug [3, 7]: 2
subjects who experienced AEs [3, 7]: 37.5%
subjects with TEAEs considered possibly related to the study drug [3, 7]: 25.0%
safety and tolerability ([3]; single oral dose, subjects with mild and moderate hepatic impairment): safe and well tolerated
